This is an account of results in ChEMBL document CHEMBL1129443, “Inactivation of S-adenosyl-L-homocysteine hydrolase by amide and ester derivatives of adenosine-5'-carboxylic acid” (J Med Chem, 1996).

Assay [1] has as its target T1, Adenosylhomocysteinase (Homo sapiens, UniProt P23526). In words: Inhibition of S-adenosyl-L-homocysteine hydrolase, inactivation rate constant.
Target sequence in this assay (P23526 whole entry): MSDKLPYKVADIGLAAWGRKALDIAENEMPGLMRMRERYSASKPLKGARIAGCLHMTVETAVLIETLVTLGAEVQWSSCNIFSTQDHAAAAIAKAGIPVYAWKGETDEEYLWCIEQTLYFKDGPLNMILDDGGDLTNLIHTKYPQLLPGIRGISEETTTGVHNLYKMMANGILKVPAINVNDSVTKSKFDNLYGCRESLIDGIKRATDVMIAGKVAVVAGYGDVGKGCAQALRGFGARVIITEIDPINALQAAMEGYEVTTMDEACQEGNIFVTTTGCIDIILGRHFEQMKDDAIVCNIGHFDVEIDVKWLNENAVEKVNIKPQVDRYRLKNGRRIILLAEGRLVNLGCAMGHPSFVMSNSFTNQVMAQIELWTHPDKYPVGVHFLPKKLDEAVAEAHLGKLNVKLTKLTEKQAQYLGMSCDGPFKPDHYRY
The target of assay [2] is T1, Adenosylhomocysteinase.
Target sequence in this assay (P23526 2-432 limits assumed): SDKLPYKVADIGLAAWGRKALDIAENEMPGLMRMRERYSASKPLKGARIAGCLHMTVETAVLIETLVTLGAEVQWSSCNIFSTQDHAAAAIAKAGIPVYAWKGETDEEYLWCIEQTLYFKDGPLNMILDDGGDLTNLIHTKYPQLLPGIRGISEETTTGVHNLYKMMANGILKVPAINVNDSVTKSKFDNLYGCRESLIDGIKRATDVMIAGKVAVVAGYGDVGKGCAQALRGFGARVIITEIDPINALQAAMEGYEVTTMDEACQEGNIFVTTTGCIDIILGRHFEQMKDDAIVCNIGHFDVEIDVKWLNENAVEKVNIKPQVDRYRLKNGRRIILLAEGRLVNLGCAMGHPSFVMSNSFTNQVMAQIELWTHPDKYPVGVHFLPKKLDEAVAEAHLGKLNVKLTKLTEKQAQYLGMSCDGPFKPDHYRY
Description: Inhibition of S-adenosyl-L-homocysteine hydrolase, dissociation constant.

In turn, `CCCCOC(=O)[C@H]1OC(n2cnc3c(N)ncnc32)[C@H](O)[C@@H]1O` (stereo partly drawn) had a Ki in assay [1] of 0.71 µM. In assay [2], the K2 came to 0.11 min⁻¹.

In the case of `Nc1ncnc2c1ncn2C1O[C@H](C(=O)Nc2ccccc2)[C@@H](O)[C@H]1O` (stereo partly drawn), in assay [1], the Ki was 48.5 µM. For the same compound, the K2 in assay [2] came to 0.028 min⁻¹.

Regarding `COC(=O)[C@H]1O[C@@H](n2cnc3c(N)ncnc32)[C@H](O)[C@@H]1O`, the Ki in assay [1] came to 1.7 µM. The K2 in assay [2] is 0.78 min⁻¹.

`Nc1ncnc2c1ncn2C1O[C@H](C(=O)OCCCl)[C@@H](O)[C@H]1O` (stereo partly drawn): the Ki in assay [1] worked out at 0.32 µM. The compound further had a K2 in assay [2] of 0.35 min⁻¹.

`CNC(=O)[C@H]1O[C@@H](n2cnc3c(N)ncnc32)[C@H](O)[C@@H]1O` gave a Ki in assay [1] of 1.93 µM. The compound also came in with a K2 in assay [2] of 0.095 min⁻¹.

The compound `CCCCNC(=O)[C@H]1OC(n2cnc3c(N)ncnc32)[C@H](O)[C@@H]1O` (stereo partly drawn) came in with a Ki in assay [1] of 19.8 µM. In assay [2], this compound had a K2 of 0.03 min⁻¹.

For the compound `Nc1ncnc2c1ncn2C1O[C@H](C(=O)NCc2ccccc2)[C@@H](O)[C@H]1O` (stereo partly drawn), the Ki in assay [1] was determined as 43.4 µM. In assay [2], the K2 is 0.03 min⁻¹.

For the compound `CCN(CC)C(=O)[C@H]1OC(n2cnc3c(N)ncnc32)[C@H](O)[C@@H]1O` (stereo partly drawn), the Ki in assay [1] came out at 0.57 µM. In addition, in assay [2], the K2 was determined as 0.05 min⁻¹.

In assay [1], `Nc1ncnc2c1ncn2[C@@H]1O[C@H](C(=O)O)[C@@H](O)[C@H]1O` [5'-CARBOXY ADENOSINE] came in with a Ki of 0.41 µM. The K2 in assay [2] is 0.045 min⁻¹.

In assay [1], `CC(C)COC(=O)[C@H]1OC(n2cnc3c(N)ncnc32)[C@H](O)[C@@H]1O` (stereo partly drawn) showed a Ki of 0.57 µM. In assay [2], the K2 was determined as 0.077 min⁻¹.

`Nc1ncnc2c1ncn2C1O[C@H](C(=O)OCc2ccccc2)[C@@H](O)[C@H]1O` (stereo partly drawn) yielded a Ki in assay [1] of 0.36 µM. Moreover, in assay [2], the K2 came out at 0.017 min⁻¹.

In turn, `NC(=O)[C@H]1OC(n2cnc3c(N)ncnc32)[C@H](O)[C@@H]1O` (stereo partly drawn) showed a Ki in assay [1] of 2.6 µM. Also, the K2 in assay [2] was 0.1 min⁻¹.

With `Nc1ncnc2c1ncn2[C@@H]1O[C@H](C=O)[C@@H](O)[C@H]1O`, the Ki in assay [1] worked out at 0.039 µM. Further, in assay [2], the K2 came to 0.65 min⁻¹.

In the case of `CC(C)OC(=O)[C@H]1OC(n2cnc3c(N)ncnc32)[C@H](O)[C@@H]1O` (stereo partly drawn), the Ki in assay [1] was found to be 0.77 µM. For the same compound, in assay [2], the K2 worked out at 0.064 min⁻¹.
